Tests used:
[1] = Stability in Hanks' balanced salt solution (HBSS); type: physicochemical; settings: 37° C., relative to initial conc. in HBSS = 100.00
Procedure: (§1) The stability of the NAP derivatives prepared by EXAMPLE 1 was measured with the system of human colon cancer cell, Caco-2 cell. Caco-2 cells (1×10^5 cells) were first seeded into a polycarbonate film on the upper layer of a 12-well Transwell and incubated for 18 to 26 days at 37° C. The TEER of the Caco-2 cell monolayer was measured over 350 Ω×cm^2. The stability of the NAP derivatives in the Hanks' balanced salt solutions (HBSS) was measured by the concentration changes of NAP and the NAP derivatives incubated in the HBSS at 37° C. for 4 hours. The stability of the NAP derivatives in the Caco-2 cell system was measured by the procedure described below. NAP and the NAP derivatives in the HBSS were added into the upper layer of the Caco-2 cell-seeded Transwell. After 4-hour incubation, the concentration of NAP and the NAP derivatives in the upper and lower layers was measured and analyzed in comparison with the initial concentration (500 μM) by reverse HPLC at 210 nm.

Caco-2 cell = assay: Stability in the Caco-2 cell system; type: in vitro ADME, human; settings: 4-hour incubation in Caco-2 Transwell; relative to initial conc. = 100.00 (500 μM)
Procedure: as §1

| Compound | Conc. after 4-hour in HBSS [1] | Conc. after 4-hour in Caco-2 cells (Caco-2 cell) |
| --- | --- | --- |
| H-NAPISIPQ-OH [BMEC-NAP0604, H-NAPISIPQ-OH] | 103.83 | 23.89 |
| CCCC(=O)N[C@@H](CC(N)=O)C(=O)N[C@@H](C)C(=O)N1CCC[C@H]1C(=O)N[C@H](C(=O)N[C@@H](CO)C(=O)N[C@H](C(=O)N1CCC[C@H]1C(=O)N[C@@H](CCC(N)=O)C(=O)O)[C@@H](C)CC)C(C)C [BMEC-NAP0101, Butyryl-NAPVSIPQ-OH] | 97.76 | 56.02 |
| H-QAPVSVPAQ-OH [BMEC-NAP0607, H-QAPVSVPAQ-OH] | 97.33 | 16.54 |
| CCCCOC(=O)N[C@@H](CC(N)=O)C(=O)N[C@@H](C)C(=O)N1CCC[C@H]1C(=O)N[C@H](C(=O)N[C@@H](CO)C(=O)N[C@H](C(=O)N1CCC[C@H]1C(=O)N[C@@H](CCC(N)=O)C(=O)O)[C@@H](C)CC)C(C)C [BMEC-NAP0403, nBu-OCO-NAPVSIPQ-OH] | 98.49 | 29.05 |
| CCCCCCC(=O)N[C@@H](CC(N)=O)C(=O)N[C@@H](C)C(=O)N1CCC[C@H]1C(=O)N[C@H](C(=O)N[C@@H](CO)C(=O)N[C@H](C(=O)N1CCC[C@H]1C(=O)N[C@@H](CCC(N)=O)C(=O)O)[C@@H](C)CC)C(C)C [BMEC-NAP0106, C6H13CO-NAPVSIPQ-OH] | 102.05 | 26.74 |
| CCCCCCCCC(=O)N[C@@H](CC(N)=O)C(=O)N[C@@H](C)C(=O)N1CCC[C@H]1C(=O)N[C@H](C(=O)N[C@@H](CO)C(=O)N[C@H](C(=O)N1CCC[C@H]1C(=O)N[C@@H](CCC(N)=O)C(=O)O)[C@@H](C)CC)C(C)C [BMEC-NAP0107, C8H17CO-NAPVSIPQ-OH] | 98.74 | 24.21 |
| H-NAPVSLPQ-OH [BMEC-NAP0606, H-NAPVSLPQ-OH] | 99.42 | 11.54 |
| CCCCCCCCCCCCOC(=O)N[C@@H](CC(N)=O)C(=O)N[C@@H](C)C(=O)N1CCC[C@H]1C(=O)N[C@H](C(=O)N[C@@H](CO)C(=O)N[C@H](C(=O)N1CCC[C@H]1C(=O)N[C@@H](CCC(N)=O)C(=O)O)[C@@H](C)CC)C(C)C [BMEC-NAP0406, nDod-OCO-NAPVSIPQ-OH] | 130.04 | 97.75 |
| CC[C@H](C)[C@H](NC(=O)[C@H](CO)NC(=O)[C@@H](NC(=O)[C@@H]1CCCN1C(=O)[C@H](C)NC(=O)[C@H](CC(N)=O)NC(=O)c1ccc(-c2ccccc2)cc1)C(C)C)C(=O)N1CCC[C@H]1C(=O)N[C@@H](CCC(N)=O)C(=O)O [BMEC-NAP0703, 4-Phenylbenzoyl-NAPVSIPQ-OH] | 95.73 | 88.79 |
| Adipyl-NAPVSIPQ-OH [BMEC-NAP0102] | 99.95 | 60.72 |
| H-NAPVSVPQ-OH [BMEC-NAP0605, H-NAPVSVPQ-OH] | 104.25 | 27.76 |
| H-QAPVSIPQ-OH [BMEC-NAP0602, H-QAPVSIPQ-OH] | 104.94 | 21.81 |
| CCCCCCCCOC(=O)N[C@@H](CC(N)=O)C(=O)N[C@@H](C)C(=O)N1CCC[C@H]1C(=O)N[C@H](C(=O)N[C@@H](CO)C(=O)N[C@H](C(=O)N1CCC[C@H]1C(=O)N[C@@H](CCC(N)=O)C(=O)O)[C@@H](C)CC)C(C)C [BMEC-NAP0405, nOct-OCO-NAPVSIPQ-OH] | 99.66 | 17.11 |
| CCCCC(=O)N[C@@H](CC(N)=O)C(=O)N[C@@H](C)C(=O)N1CCC[C@H]1C(=O)N[C@H](C(=O)N[C@@H](CO)C(=O)N[C@H](C(=O)N1CCC[C@H]1C(=O)N[C@@H](CCC(N)=O)C(=O)O)[C@@H](C)CC)C(C)C [BMEC-NAP0105, C4H9CO-NAPVSIPQ-OH] | 98.36 | 49.86 |
